Results published in patent US8883679B2, “Liquid mycorrhiza compositions” (Novozymes A/S, priority 2007, dated 2014).

System: roots of corn plants
Assay: endomycorrhizal mean infection percentage (MIP) bioassay
Format: in vivo, Zea Maize 'Golden Bantam'
Conditions: both trials
Procedure: An endomycorrhizal mean infection percentage (MIP) bioassay was initiated to test mycorrhizal infectivity of a liquid mycorrhizal formulation treated with bactericides. The MIP bioassay is used to determine the effect of endomycorrhizal colonization in the roots of corn plants on the treatment applied. The MIP bioassay was adapted to utilize 15 mL of liquid per pot. The liquid mycorrhizal formulation which was tested was MycoApply Ultra (Novozymes Biologicals), which is a mycorrhizal inoculant that contains several species of endomycorrhizas. For a ready to use fertilizer, the optimal amount of mycorrhizas to be added based on application rate of ready to use fertilizer, mycorrhizal infectivity, and cost effectiveness was 0.1 propagules of mycorrhizas per 1.0 mL of ready to use fertilizer. MycoApply Ultra contains 286 propagules per gram, therefore 0.00034 g MycoApply Ultra in 1 mL of ready to use fertilizer will provide the desired concentration of mycorrhizal propagules, 0.1 prop/mL. The MycoApply Ultra was tested with two different concentrates 10× (0.0034 g/mL) and 100× (0.034 g/mL). The bactericide used in all treatments for Trial 1 was 500 ppm Kathon and 250 ppm Bronopol. There were seven treatment groups, each contained 5 replicates. Treatment 1 was a water only control. […] At harvest the parameter evaluated was percent mycorrhizal colonization. […]

SMILES: O=[N+]([O-])C(Br)(CO)CO [Bronopol, 2-bromo-2-nitro-1,3-propanediol]
- ability of mycorrhizas to germinate and infect roots in presence of bactericide: increase
